The values below come from paper PMC6312359, “Diisopropylphenyl-imidazole (DII): A new compound that exerts anthelmintic activity through novel molecular mechanisms” (PLoS Neglected Tropical Diseases, 2018).

SMILES strings stand for the structures. ≈ marks a conversion by molar mass, not a printed value. Where “and” joins values, the source holds several entries; their conditions need not be identical. Equal values may be shown once. Entries after “also recorded” stand apart in the source; their conditions may differ.

In test [1] the test system is C. elegans. Kind of test: Screening imidazole compounds: worm survival. The class given is in vivo, Caenorhabditis elegans. The settings on record: 150 μg/ml, 72 h, 20°C, young adult wild-type worms, liquid medium (S-Basal) with E. coli OP50. The procedure: 100–150 young adult wild-type worms were exposed to these compounds (150 μg/ml) in liquid medium (S-Basal) containing E. coli OP50. Micromolar concentrations for each compound are: 487 μM for 1, 428 μM for 2, 410 μM for 3, 375 μM for 4, 789 μM for 5, 735 μM for 6, 389 μM for 7, 319 μM for 8, 263 μM for 9, 806 μM for 10 and 657 μM for 11. Compounds were dissolved in water or DMSO according to their solubility. After 72 h, animal survival was analyzed. An animal was considered dead if it made no movement in response to gentle prodding with a worm pick. At least three independent experiments were analyzed.
We exposed 100–150 young adult worms to these compounds in liquid medium (S-Basal) containing the bacteria E. coli OP50 as a food source. After 72 h at 20°C, we analyzed worm survival (Fig 1B). […] The drug concentration chosen for this screening was 150 μg/ml, which is similar to those used in other screening studies. The corresponding molar concentration for each compound is detailed in Materials and Methods. Depending on their solubility properties, the compounds were dissolved either in water or DMSO (up to 0.75% final concentration).

The test system of test [2] is Escherichia coli ATCC 25922. The test can be described thus: Minimum inhibitory and bactericidal concentrations, microdilution. The class given is cell-based. To be noted: 24 h at 37°C. The method, then:
(§1) The strains used in this study were Escherichia coli ATCC 25922 and Staphylococcus aureus ATCC 25923, kindly provided by Dr. Ziegler (Bacillus Genetic Stock Center, The Ohio State University). Stocks were stored in Mueller Hinton Broth (MHB, Biokar Diagnostics, France) supplemented with glycerol 20% at -70°C. Before running each test, the strains were incubated for 48 h at 37°C in MHB. Finally, the bacterial strains were sub-cultured in MHB at 37°C for 24 h. The solutions of antimicrobial agents and imidazolium salts were prepared following the Clinical and Laboratory Standards Institute (CLSI) guidelines for determination of Minimum Inhibitory Concentrations by the microdilution method (CLSI 2009). […] Cultures were incubated as described above and adjusted to OD625nm ~ 0.08–0.13 by the direct colony suspension method in saline water and finally adjusted to 2–8 10^5 CFU/ml by diluting 1:150 in MHB before testing. A volume of 100 μl of each sample dilution in saline water was transferred to the microplate well. Finally, an equal volume of the inoculum was added. The MIC was the lowest concentration at which there was no visible growth when compared with controls after 24 h at 37°C. To assess the minimum bactericidal concentration (MBC), 20 μl aliquots were taken from the wells where no visible growth was observed, seeded on petri dishes and covered with MH agar (MHA) at 45°C. The compounds were considered bactericidal at the concentration at which no visible colony was observed on the plate after 24 h at 37°C. All conditions were run at least in duplicate. The results were obtained from at least 3 independent experiments.

Test [3] deals with Staphylococcus aureus ATCC 25923. The description is as above. To be noted: ATCC25923, 24 h at 37°C. The class given is cell-based. The method, then:
as §1

For test [4], the system named is C. elegans. The test can be described thus: Lethality assays, dose-dependent, wild-type L4. The class given is in vivo, Caenorhabditis elegans. To be noted: for LC50: Caenorhabditis elegans, L4 wild-type. The method, then:
Dose-dependent lethality was quantified by exposing 40 L4s to DII (0–1000 μM) dissolved in solid medium for 8 and 24 h at 20°C. For survival to 96 h of DII exposure the temperature used was 13°C to avoid food depletion.

Test [5] has as its system C. elegans. Kind of test: Worm cut preparation paralysis. To be noted: 10 min; DII 600 μM, levamisole 10 μM; listed as DII. The class given is in vivo, Caenorhabditis elegans. The procedure:
Cutworm assays were performed as previously described with slight modifications. Briefly, synchronized young adult animals were mounted in a glass microscope slide containing Artificial Perienteric Fluid (APF) (67 mM NaCl, 67 mM NaCH3COOH, 3 mM KCl, 15.7 mM MgCl2, 3 mM CaCl2 and 5 mM Tris, pH 7.6). 10 animals were severed between the middle and tail, approximately two-thirds from the anterior end. Worms were subsequently transferred to a multi-well plate containing APF or drug-APF and paralysis was evaluated after 10 minutes. All experiments were performed at least three times.

Test [6] relates to C. elegans. The test can be described thus: Body length measurements. Type of test: in vivo, Caenorhabditis elegans. To be noted: 600 μM, 2 h. The procedure: Vehicle (0.75% DMSO) was used as a control. After 2 h, images were acquired and body length was measured using FIJI-ImageJ software. At least three independent experiments were analyzed.
Test [7] has as its system C. elegans. Kind of test: Egg-laying assays. Type of test: in vivo, Caenorhabditis elegans. To be noted: gravid worms. The method, then:
Age-synchronized gravid worms were transferred to solid NGM plates containing different drug concentrations (100–300 μM). Each concentration was evaluated in triplicate and DMSO was used as a control. After 1 h, the number of laid eggs per worm was counted. This experiment was independently repeated three times.

The subject of test [8] is E. coli OP50. Kind of test: OP50 growth in screening wells (qualitative). Type of test: cell-based, Escherichia coli. To be noted: 150 μg/ml, qualitative observation. From the text: During the screening assays, we qualitatively noticed that OP50 growth was inhibited in wells containing MI. This effect was not observed with DII. To quantify this observation, we determined minimum inhibitory concentration (MIC) and minimum bactericidal concentration (MBC) of both compounds in E. coli cultures (Fig 2A). […] Similar values were obtained when we performed these assays on S. aureus, a Gram-positive bacteria (Fig 2A). […] As we are here screening for specific anthelmintic activity, we restricted our further analysis to compounds that appear to exert nematicidal action without obvious lethal effects on other organisms. Therefore, we focused our studies only on DII, relegating the evaluation of MI as a potential anthelmintic drug.

`CC(C)c1cccc(C(C)C)c1-n1ccnc1` [Compound 11] came in with a worm death in test [1] of 100%. Further, the “MIC E. coli” value in test [2] (listed as DII (11)) was found to be 256 µg/mL (≈ 1120 µM). Moreover, the MBC in test [2] (Escherichia coli, ATCC25922) was over 256 µg/mL; in test [3] (read-out: MBC S. aureus), over 256 µg/mL. In addition, the MIC in test [2] (Escherichia coli, ATCC25922) was 256 µg/mL and 1110 µM; in test [3] (read-out: MIC S. aureus) it was 256 µg/mL (≈ 1120 µM). Also, the lethality in test [4] (24 h of exposure, micromolar concentrations) is given as 100%. For the same compound, the LC50 worked out at 448.5 ± 1.1 µM in test [4] (8 h of exposure); 342.3 ± 1 µM in test [4] (24 h of exposure); 23.4 ± 1.06 µM in test [4] (96 h of exposure, 13°C). Also, the “paralysis in cut specimens” value in test [5] was “unable to induce paralysis; also recorded: fail to produce significant paralysis”. Moreover, the body length result in test [6] is “no significant changes”. Besides, the “laid eggs in 1 h, fold more than controls” value in test [7] (100 μM) is listed as “did not produce an increase”. Further, the “reduction in the number of laid eggs” value in test [7] (300 μM, 1 h) was 3.6 fold. The “OP50 growth in screening wells” value in test [8] was “not observed”.
